Measurements taken from article PMC2806265, “Divergence of allosteric effects of rapacuronium on binding and function of muscarinic receptors” (BMC Pharmacology, 2009).
Read-outs that look alike come from different tables or passages of the source. Marks after values point to notes of the source that are not given here.

Key:
M4 muscarinic receptor = target: T1, M4 muscarinic receptor (Homo sapiens, UniProt P08173); assay: [3H]NMS dissociation; settings: + 100 μM rapacuronium
T1 sequence (P08173 1-479): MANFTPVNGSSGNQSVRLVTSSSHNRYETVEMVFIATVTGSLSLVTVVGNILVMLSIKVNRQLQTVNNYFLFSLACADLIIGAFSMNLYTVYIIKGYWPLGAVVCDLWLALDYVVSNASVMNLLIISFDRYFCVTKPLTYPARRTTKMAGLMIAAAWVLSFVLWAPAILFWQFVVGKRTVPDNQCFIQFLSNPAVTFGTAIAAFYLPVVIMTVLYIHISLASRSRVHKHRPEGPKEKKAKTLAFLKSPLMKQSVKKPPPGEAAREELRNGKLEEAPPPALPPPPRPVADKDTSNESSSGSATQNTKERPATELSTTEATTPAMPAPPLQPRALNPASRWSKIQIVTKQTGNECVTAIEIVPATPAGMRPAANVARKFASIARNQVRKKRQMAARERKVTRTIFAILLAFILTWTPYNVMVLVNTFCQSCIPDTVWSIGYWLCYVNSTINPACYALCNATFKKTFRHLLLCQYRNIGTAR

M1 muscarinic receptor [1] = target: T2, M1 muscarinic receptor (Homo sapiens, UniProt P11229); assay type: binding; settings: + 100 μM rapacuronium
T2 construct: host or cells: CHO cells, stably transfected; membrane preparation
T2 sequence (P11229 1-460): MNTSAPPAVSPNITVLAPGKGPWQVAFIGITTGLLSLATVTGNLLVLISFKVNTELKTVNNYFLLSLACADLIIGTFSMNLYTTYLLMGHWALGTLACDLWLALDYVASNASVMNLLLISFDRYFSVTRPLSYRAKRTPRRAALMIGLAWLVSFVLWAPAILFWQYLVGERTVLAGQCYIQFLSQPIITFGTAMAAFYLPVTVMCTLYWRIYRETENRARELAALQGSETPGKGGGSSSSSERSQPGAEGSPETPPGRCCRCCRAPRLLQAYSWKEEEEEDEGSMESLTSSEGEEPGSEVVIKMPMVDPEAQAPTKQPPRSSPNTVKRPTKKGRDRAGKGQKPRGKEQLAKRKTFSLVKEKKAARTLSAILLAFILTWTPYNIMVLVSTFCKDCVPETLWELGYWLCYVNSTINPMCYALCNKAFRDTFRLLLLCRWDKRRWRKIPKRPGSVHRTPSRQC
Description: (§1) y, radioligand binding at time x normalized to binding at time 0; koff1 and koff2, dissociation rate constants; f2, fraction of binding site with dissociation rate constant koff2. When both Eq. 7a and 7b were fitted to data the better fit was chosen based on sum of squares F-test and runs test.

M3 muscarinic receptor [2] = target: T3, M3 muscarinic receptor (Homo sapiens, UniProt P20309); assay type: binding
T3 construct: host or cells: CHO cells, stably transfected; membranes
T3 sequence (P20309 whole entry): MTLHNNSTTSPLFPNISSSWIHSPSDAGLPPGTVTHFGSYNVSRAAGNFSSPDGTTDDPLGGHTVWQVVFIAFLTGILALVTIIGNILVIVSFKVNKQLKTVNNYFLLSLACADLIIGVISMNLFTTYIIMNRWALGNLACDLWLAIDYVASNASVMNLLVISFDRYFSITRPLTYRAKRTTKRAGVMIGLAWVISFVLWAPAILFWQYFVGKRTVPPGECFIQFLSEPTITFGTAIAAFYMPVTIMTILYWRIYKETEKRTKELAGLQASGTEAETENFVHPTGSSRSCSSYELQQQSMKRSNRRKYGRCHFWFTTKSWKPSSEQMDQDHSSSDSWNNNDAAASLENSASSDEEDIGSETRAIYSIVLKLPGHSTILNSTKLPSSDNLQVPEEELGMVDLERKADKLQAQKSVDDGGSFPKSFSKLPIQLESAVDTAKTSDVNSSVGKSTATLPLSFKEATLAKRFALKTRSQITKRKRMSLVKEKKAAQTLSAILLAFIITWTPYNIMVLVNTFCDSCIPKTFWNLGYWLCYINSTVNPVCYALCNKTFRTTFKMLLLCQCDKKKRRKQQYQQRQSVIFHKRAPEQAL
Description: as §1

M2 muscarinic receptor [3] = target: T4, M2 muscarinic receptor (Homo sapiens, UniProt P08172); assay: [3H]NMS saturation binding
T4 sequence (P08172 1-466): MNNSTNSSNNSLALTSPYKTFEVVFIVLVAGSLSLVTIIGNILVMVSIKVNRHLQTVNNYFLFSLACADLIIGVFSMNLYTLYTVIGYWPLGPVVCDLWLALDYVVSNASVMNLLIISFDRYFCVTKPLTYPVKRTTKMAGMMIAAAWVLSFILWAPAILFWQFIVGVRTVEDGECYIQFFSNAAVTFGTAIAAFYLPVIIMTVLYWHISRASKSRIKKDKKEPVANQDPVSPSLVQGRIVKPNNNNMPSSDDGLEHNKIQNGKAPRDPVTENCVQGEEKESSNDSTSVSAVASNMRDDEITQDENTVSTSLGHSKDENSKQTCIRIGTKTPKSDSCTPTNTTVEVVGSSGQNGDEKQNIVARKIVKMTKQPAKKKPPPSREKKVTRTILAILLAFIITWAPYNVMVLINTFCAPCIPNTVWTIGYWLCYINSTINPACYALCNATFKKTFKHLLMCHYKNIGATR

M1 muscarinic receptor [4] = target: T2, M1 muscarinic receptor; assay: [3H]ACh saturation binding
Description: (§2) BMAX, maximum binding capacity; KD, equilibrium dissociation constant.

M3 muscarinic receptor [5] = target: T3, M3 muscarinic receptor; assay: [3H]ACh saturation binding
Description: as §2

[6] = test system: nontransfected CHO-K1 cells; assay: [35S]GTPγS binding to membranes from nontransfected cells; assay type: biochemical, Chinese hamster
Protocol: Figure 6 Effects of rapacuronium on ACh-induced [^35S]GTPγS binding to membranes. Membranes from CHO cells expressing individual subtypes of muscarinic receptors or nontransfected CHO-K1 cells were preincubated for 60 min with buffer (closed symbols) or with rapacuronium (open symbols). […] Data are expressed as fold increase of basal [^35S]GTPγS binding and are presented as means ± SE from 3 independent experiments performed in quadruplicates. Curves are fits of Eq. 5 to data.

M1 muscarinic receptor [7] = target: T2, M1 muscarinic receptor; assay type: binding
Description: as §2

M3 muscarinic receptor [8] = target: T3, M3 muscarinic receptor; assay type: binding; remark: listed apart in the source
Description: as §2

M2 muscarinic receptor [9] = target: T4, M2 muscarinic receptor; assay: Effect of rapacuronium on high-affinity 20 nM [3H]ACh binding; design: host or cells: CHO cells, stably transfected; membrane preparation
Description: (§3) Cooperativity factor greater than 1 denotes negative cooperativity and less than 1 positive cooperativity. Due to its log-normal error distribution factors of cooperativity are expressed as negative logarithms (pα) through the manuscript so negative values denotes negative cooperativity and positive value denotes positive cooperativity.

M1 muscarinic receptor [10] = target: T2, M1 muscarinic receptor; assay: Effect of rapacuronium on 1 nM [3H]NMS binding
Description: as §3

M3 muscarinic receptor [11] = target: T3, M3 muscarinic receptor; assay: Effect of rapacuronium on 1 nM [3H]NMS binding
Description: as §3

[12] = read-out: pKA of rapacuronium (converted)

C=CC[N+]1([C@H]2C[C@H]3[C@@H]4CC[C@H]5C[C@H](OC(C)=O)[C@@H](N6CCCCC6)C[C@]5(C)[C@H]4CC[C@]3(C)[C@H]2OC(=O)CC)CCCCC1 [rapacuronium]
f2, fraction of sites with faster dissociation (M4 muscarinic receptor): 6.0 ± 2.0% | koff1 of [^3H]NMS dissociation (M4 muscarinic receptor): 0.017 ± 0.001* min^-1 | koff2 of [^3H]NMS dissociation (M4 muscarinic receptor): 0.0125 ± 0.00183 s⁻¹ | f2, fraction of sites with faster dissociation (M1 muscarinic receptor [1]): 14 ± 3% | koff1 of [^3H]NMS dissociation (M1 muscarinic receptor [1]): 0.014 ± 0.001* min^-1 | koff2 of [^3H]NMS dissociation (M1 muscarinic receptor [1]): 0.00567 ± 0.00083 s⁻¹ | decrease in rate of [^3H]NMS dissociation (M3 muscarinic receptor [2]; 100 μM rapacuronium): 40% | f2, fraction of sites with faster dissociation (M3 muscarinic receptor [2]; + 100 μM rapacuronium): 20 ± 4% | koff1 of [^3H]NMS dissociation (M3 muscarinic receptor [2]; + 100 μM rapacuronium): 0.031 ± 0.002* min^-1 | koff2 of [^3H]NMS dissociation (M3 muscarinic receptor [2]; + 100 μM rapacuronium): 0.000967 ± 0.00015 s⁻¹ | BMAX of [^3H]NMS (M2 muscarinic receptor [3]; + 10 μM rapacuronium): 1.62 ± 0.14 fmol/μg of protein | BMAX of [^3H]NMS (M2 muscarinic receptor [3]; + 100 μM rapacuronium): 1.66 ± 0.14 fmol/μg of protein | BMAX of [^3H]ACh (M1 muscarinic receptor [4]; + 10 μM rapacuronium): 0.33 ± 0.05 fmol/μg of protein | BMAX of [^3H]ACh (M1 muscarinic receptor [4]; + 100 μM rapacuronium): 0.32 ± 0.05 fmol/μg of protein | BMAX of [^3H]ACh (M3 muscarinic receptor [5]; + 10 μM rapacuronium): 0.40 ± 0.04 fmol/μg of protein | BMAX of [^3H]ACh (M3 muscarinic receptor [5]; + 100 μM rapacuronium): 0.37 ± 0.05 fmol/μg of protein | effect on [^35S]GTPγS binding [6]: did not decrease | BMAX of [^3H]NMS (M1 muscarinic receptor [7]; + 10 μM rapacuronium): 2.03 ± 0.15 fmol/μg of protein | BMAX of [^3H]NMS (M1 muscarinic receptor [7]; + 100 μM rapacuronium): 1.85 ± 0.17 fmol/μg of protein | BMAX of [^3H]NMS (M3 muscarinic receptor [8]; + 10 μM rapacuronium): 1.67 ± 0.14 fmol/μg of protein | BMAX of [^3H]NMS (M3 muscarinic receptor [8]; + 100 μM rapacuronium): 1.59 ± 0.16 fmol/μg of protein | pα, cooperativity with [^3H]ACh high affinity binding (M2 muscarinic receptor [9]; M2, negative value = negative cooperativity): -1.46 ± 0.08 | Kd (M2 muscarinic receptor [9]; [12]): 2.82 µM | pα, cooperativity with [^3H]NMS (M1 muscarinic receptor [10]; M1, negative value = negative cooperativity): -1.08 ± 0.05 | Kd (M1 muscarinic receptor [10]; [12]): 4.27 µM | pα, cooperativity with [^3H]NMS (M3 muscarinic receptor [11]; M3, negative value = negative cooperativity): -1.11 ± 0.05 | Kd (M3 muscarinic receptor [11]; [12]): 17.8 µM
